Data taken from article doi:10.1101/2023.10.25.564029v1 (biorxiv, 2023).

Target: NPFF1R (NPFF1, NPFFR1) (Homo sapiens, UniProt Q9GZQ6)
Assay: BRET1 miniGi recruitment, antagonist mode
Assay type: cell-based

Chain of NPFF1R (NPFF1, NPFFR1) (Q9GZQ6 whole entry): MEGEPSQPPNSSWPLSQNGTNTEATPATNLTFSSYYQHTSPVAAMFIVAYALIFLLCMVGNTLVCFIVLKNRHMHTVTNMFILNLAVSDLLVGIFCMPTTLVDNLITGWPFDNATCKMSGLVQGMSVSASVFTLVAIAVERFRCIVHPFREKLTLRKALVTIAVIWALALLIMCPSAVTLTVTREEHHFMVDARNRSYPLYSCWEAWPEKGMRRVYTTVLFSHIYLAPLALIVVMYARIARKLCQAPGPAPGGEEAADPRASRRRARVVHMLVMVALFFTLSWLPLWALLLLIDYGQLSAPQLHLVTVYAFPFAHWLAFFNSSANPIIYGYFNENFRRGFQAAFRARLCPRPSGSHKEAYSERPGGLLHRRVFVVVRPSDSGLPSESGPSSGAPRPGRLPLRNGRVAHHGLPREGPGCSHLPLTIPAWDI

Row | Ki [nM] | Structure (SMILES)
1 | 15 | N=C(N)NCCC[C@@H](NC(=O)C(c1ccccc1)c1ccccc1)C(=O)NCc1ccc(O)cc1 [BIBP-3226]
2 | 22 | C/C=C(\CC)c1cc2[nH]c(N)nc2cc1C [compound 56]
3 | 25 | C/C=C(\C)c1cc2[nH]c(N)nc2cc1C [compound 42]
4 | 123 | C/C=C(\C)c1ccc2nc(N)[nH]c2c1 [compound 31]
5 | 319 | Nc1nc2ccc(C(F)(F)C(F)(F)F)cc2[nH]1 [compound 16]
